This passage reports activity results from patent US20100168072A1, “Drug Combinations for the Treatment of Duchenne Muscular Dystrophy” (BIOMARIN IGA LIMITED, priority 2007, published 2010).

The structures appear in SMILES notation. Some results are limits rather than exact numbers.

The test concerns Utrophin A promoter linked to a luciferase reporter gene (H2K/mdx/Utro A reporter cell line). The test can be described thus: Luciferase reporter assay (murine H2K cells). The settings on record: Mus musculus; final concentration of 10 μM; incubated for a further 48 hrs. It counts as cell-based. As for the experimental part: The cell line used for the screen is an immortalized mdx mouse H2K cell line that has been stably transfected with a plasmid containing ≈5 kb fragment of the Utrophin A promoter including the first untranslated […] linked to a luciferase reporter gene.
Under conditions of low temperature and interferon containing media, the cells remain as myoblasts. These are plated into 96 well plates and cultured in the presence of compound for three days. The level of luciferase is then determined by cell lysis and reading of the light output from the expressed luciferase gene utilising a plate luminometer.
The H2K/mdx/Utro A reporter cell line was passaged twice a week until ≦30% confluent. The cells were grown at 33° C. in the presence of 10% CO2
To remove the myoblasts for platting, they were incubated with Trypsin/EDTA until the monolayer started to detach.
• DMEM Gibco 41966 • 20% FCS • 1% Pen/Strep • 1% glutamine • 10 mls Chick embryo extract • Interferon(1276 905 Roche) Add fresh 10 μl/50 mls medium
The H2K/mdx/Utro A reporter cell line cells were plated out into 96 well plates (Falcon 353296, white opaque) at a density of approximately 5000 cells/well in 190 μl normal growth medium. The plates were then incubated at 33° C. in the presence of 10% CO2 for 24 hrs.
Compounds were dosed by adding 10 μl of diluted compound to each well giving a final concentration of 10 μM. The plates were then incubated for a further 48 hrs
Cells were then lysed in situ following the manufacture's protocols (Promega Steady-Glo Luciferase Assay System (E2520). Then counted for 10 seconds using a plate luminometer (Victor1420).

Consider `CCC(=O)Nc1cc2nn(-c3ccc(Cl)cc3)nc2cc1C` [Example 7, N-(2-(4-chlorophenyl)-6-methyl-2H-benzo[d][1,2,3]triazol-5-yl)propionamide], for which the activity at 10 µM was under 200%. For `CCN(CC)c1ccc(-n2nc3ccc(NC(=O)c4ccco4)cc3n2)cc1` [Example 27, N-(2-(4-(diethylamino)phenyl)-2H-benzo[d][1,2,3]triazol-5-yl)furan-2-carboxamide], the activity at 10 µM was under 200%.

With `CCN(CC)c1ccc(-n2nc3cc(C)c(NC(=O)c4cccnc4)cc3n2)cc1` [Example 12, N-(2-(4-(diethylamino)phenyl)-6-methyl-2H-benzo[d][1,2,3]triazol-5-yl)nicotinamide], the activity at 10 µM is 301 to 400%. For `CCC(=O)Nc1ccc2nn(-c3ccc(Cl)cc3)nc2c1` [Example 35, N-(2-(4-chlorophenyl)-2H-benzo[d][1,2,3]triazol-5-yl)propionamide], the activity at 10 µM was over 401%. The result for `CS(=O)(=O)c1ccc2nn(-c3ccc(Cl)c(Cl)c3)nc2c1` [Example 50, 2-(3,4-dichlorophenyl)-5-(methylsulfonyl)-2H-benzo[d][1,2,3]triazole] reads 201 to 300%; that for `CCN(CC)c1ccc(-n2nc3ccc(NC(=O)C(C)C)cc3n2)cc1` [Example 26, N-(2-(4-(diethylamino)phenyl)-2H-benzo[d][1,2,3]triazol-5-yl)isobutyramide], under 200%. As for `Nc1ccc2nn(-c3ccc(Cl)cc3)nc2c1` [Example 38, 2-(4-chlorophenyl)-2H-benzo[d][1,2,3]triazol-5-amine], the activity at 10 µM was under 200%. Turning to `CCCCC(=O)Nc1cc2nn(-c3ccc(Cl)cc3)nc2cc1C` [Example 9, N-(2-(4-chlorophenyl)-6-methyl-2H-benzo[d][1,2,3]triazol-5-yl)pentanamide], the activity at 10 µM lay in the range of 201 to 300%. In the case of `Clc1ccc(-n2cc3ccccc3n2)cc1` [Example 48, 2-(4-chlorophenyl)-2H-indazole], the activity at 10 µM is over 401%. Regarding `CCN(CC)c1ccc(-n2nc3cc(C)c(NC(=O)C(C)C)cc3n2)cc1` [Example 17, N-(2-(4-(diethylamino)phenyl)-6-methyl-2H-benzo[d][1,2,3]triazol-5-yl)isobutyramide], the activity at 10 µM is under 200%.

For `CCCC(=O)Nc1ccc2nn(-c3ccc(N(CC)CC)cc3)nc2c1` [Example 24, N-(2-(4-(diethylamino)phenyl)-2H-benzo[d][1,2,3]triazol-5-yl)butyramide], the activity at 10 µM was under 200%. The same measure for `CC(=O)Nc1cc2nn(-c3ccccc3)nc2cc1C` [Example 67, N-(6-methyl-2-phenyl-2H-benzo[d][1,2,3]triazol-5-yl)acetamide]: 201 to 300%.

In the case of `CCc1ccc(-n2nc3ccc(N)cc3n2)cc1` [Example 68, 2-(4-ethylphenyl)-2H-benzo[d][1,2,3]triazol-5-amine], the activity at 10 µM fell in the range of 201 to 300%. The same measure for `CS(=O)(=O)c1ccc2cn(-c3ccc(Cl)cc3)nc2c1` [Example 44, 2-(4-chlorophenyl)-6-(methylsulfonyl)-2H-indazole]: 201 to 300%; for `CCCC(=O)Nc1ccc2nn(-c3ccc(Cl)cc3)nc2c1` [Example 36, N-(2-(4-chlorophenyl)-2H-benzo[d][1,2,3]triazol-5-yl)butyramide]: 301 to 400%; for `Cc1ccc(-n2nc3cc(C)c(N)cc3n2)cc1` [Example 65, 6-methyl-2-p-tolyl-2H-benzo[d][1,2,3]triazol-5-amine]: 201 to 300%. The result for `CCC(=O)Nc1ccc2nn(-c3ccc(N(CC)CC)cc3)nc2c1` [Example 23, N-(2-(4-(diethylamino)phenyl)-2H-benzo[d][1,2,3]triazol-5-yl)propionamide] reads under 200%; that for `CS(=O)(=O)c1ccc2nn(-c3ccc4ccccc4c3)[n+]([O-])c2c1` [Example 54, 6-(Methylsulfonyl)-2-(naphthalen-2-yl)-2H-benzo[d][1,2,3]triazole 1-oxide], 201 to 300%.
